What was measured:
[1] = Relative distribution coefficient of epoxybutene into the aqueous phase in the presence of a water-miscible solvent; format: physicochemical; settings: one part solvent added to two parts of 2:1 water-epoxybutene mixture, room temperature, aqueous phase by GC; relative to water alone (=1.00)
Description: This example compares the absorption affinity of various water-miscible solvents for epoxybutene in the presence of water, as occurs in the absorbent zone of the present invention. A standard mixture of 2 parts by weight water and one part by weight epoxybutene was prepared. A portion of the standard solution was placed in a separatory funnel, shaken, allowed to settle, then separated into two liquid phases at room temperature. The water phase was analyzed by gas chromatography to determine the solubility of epoxybutene in pure water. Next, for each solvent specified in Table I, one part by weight water-miscible solvent was added to two parts of the standard water-epoxybutene solution. Each water-solvent-epoxybutene solution was placed in a separatory funnel, shaken, allowed to settle, then separated into two liquid phases at room temperature. The aqueous phase from the decantation was analyzed by gas chromatography to determine the epoxybutene solubility in that phase. From these compositions, distribution coefficients were calculated as: [formula]
The relative affinity of solvents for absorption of epoxybutene was determined from a relative molar distribution term, calculated as: [formula]

[2] = 25° C.; cited from earlier work
[3] = Rate of epoxybutene hydrolysis in phosphate buffers at different pH, followed by UV spectrophotometry; format: physicochemical
Description: The rate of epoxybutene hydrolysis was determined at several different pH levels according to the following procedure: A stirred, thermostatted cell was filled with a solution of buffered water and allowed to equilibrate at a temperature of 29° C. Phosphate buffers at a pH of 3, 5, 7, 8, 9, and 11 were prepared by adding either phosphoric acid or sodium hydroxide to a 0.05 M solution of disodium phosphate. For each experiment, the buffer solution was charged to a stirred, thermostatted equilibrium cell equipped with an UV spectrophometer probe. Once the solution had equilibrated at 29° C. and a background spectra had been collected, a 10 microliter standard sample of epoxybutene in acetronitrile (warmed to 29° C.) was injected into the cell to give an initial concentration of 0.01M epoxybutene. The disappearance of epoxybutene and formation of 3-butene-1,2-diol over time was followed by UV spectrophotometry.

Structure (SMILES) | Relative Distribution [1] | also measured
CN1CCCC1=O [1-Methyl-2-Pyrrolidinone] | 2.78 | 
CCCCOCCOCCO [2-(2-Butoxyethoxy)ethanol] | 4.30 | 
COCCOCCO [2-(2-Methoxyethoxy)ethanol] | 1.83 | 
CCCCOCCO [2-Butoxyethanol] | 1.29 | 
COC(C)COC(C)=O (stereo not shown) [2-Methoxypropyl Acetate] | 1.05 | 
CCCOCCO [2-Propoxyethanol] | 1.49 | 
C=CC(O)CO (stereo not shown) [3-Buten-1,2-Diol] | 1.39 | 
CC#N [Acetonitrile] | 1.89 | 
CN(C)C=O [Dimethylformamide] | 2.44 | 
C[S+](C)[O-] [Dimethylsulfoxide] | 1.40 | 
C=CC1CO1 (stereo not shown) [Epoxybutene, 3,4-epoxy-1-butene] |  | solubility of epoxybutene in water [2]: 5 to 6 weight percent; Relative Rate of Epoxybutene Hydrolysis ([3]; pH 3, phosphate buffer, 29° C., relative to pH 7): 555.5; Relative Rate of Epoxybutene Hydrolysis ([3]; pH 3, phosphate buffer, 29° C., relative to pH 7, listed as epoxybutene): over 500; Relative Rate of Epoxybutene Hydrolysis ([3]; pH 5, phosphate buffer, 29° C., relative to pH 7): 5.6; Relative Rate of Epoxybutene Hydrolysis ([3]; pH 7, phosphate buffer, 29° C. (reference)): 1.0; Relative Rate of Epoxybutene Hydrolysis ([3]; pH 8, phosphate buffer, 29° C., relative to pH 7): 0.7; Relative Rate of Epoxybutene Hydrolysis ([3]; pH 8, phosphate buffer, 29° C., relative to pH 7, listed as epoxybutene): about 0.7; Relative Rate of Epoxybutene Hydrolysis ([3]; pH 9, phosphate buffer, 29° C., relative to pH 7): 3.2; Relative Rate of Epoxybutene Hydrolysis ([3]; pH 11, phosphate buffer, 29° C., relative to pH 7): 17.6; Relative Rate of Epoxybutene Hydrolysis ([3]; pH 11, phosphate buffer, 29° C., relative to pH 7, listed as epoxybutene): over 17
OCCO [Ethylene Glycol] | 1.14 | 
COCC(C)O (stereo not shown) [Propylene Glycol Monomethyl Ether] | 2.02 | 
CC(O)CO (stereo not shown) [Propylene Glycol] | 1.90 | 
c1ccc2ncccc2c1 [Quinoline] | 1.03 | 
COCCOCCOCCOC [Triglyme] | 1.54 | 

From US6596882B2, “Recovery and purification of 3,4-epoxy-1-butene using water-miscible solvents” (Eastman Chemical Company, priority 2001, dated 2003)
